Results on four compounds are retold here after paper PMC8890504, “Evolution of Brain-Expressed Biogenic Amine Receptors into Olfactory Trace Amine-Associated Receptors” (Molecular Biology and Evolution, 2022).

The EC50 is the concentration giving half of the maximal effect. A lower EC50 goes with a more potent agent.

One experiment deals with cat TAAR4 (Felis catus, UniProt A0ABI7X9K0). The experiment in a line: Cell-based receptor activation reporter assay (SEAP / Dual-Glo luciferase). Here is the method: (§1) Fluorescence was measured with a BioTek Microplate reader.
The target of a further experiment is cow TAAR4 (Bos taurus, UniProt F1MNY9). The experiment is described as above. Here is the method:
as §1

Another experiment has as its target guinea pig TAAR4 (Cavia porcellus, UniProt H0W119). Described as above. On the procedure:
as §1

In another experiment the target is hamster TAAR4 (Mesocricetus auratus, UniProt A0A1U7Q3I9). The experiment is described as above. On the procedure:
as §1

The next experiment has as its target horse TAAR4 (Equus caballus, UniProt F7BPI5). The experiment is described as above. On the procedure: as §1
A further experiment concerns the target zebrafish TAAR12j (Danio rerio, UniProt Q5QNN7). The description is as above. On the procedure:
as §1

Another experiment concerns TARL1. The experiment in a line: Response to 16 ligands at 10 µM, luciferase assay. Type of experiment: cell-based. The conditions noted are these: fig. 5B. On the procedure: (§2) Ligand profiles and expression patterns of HTR4, TARL, and TAAR1. (A) qPCR analysis of different receptors in zebrafish tissues. Gapdh serves as a control. (B) Response of HTR4, TARL, TAARC1, and TAAR1 to 16 ligands at 10 μM. The heatmap is based on the ratio of fluorescence intensity of ligand–receptor interaction and no ligand controls in the luciferase assay. […] (C) PhyloPCA analysis on the responses of HTR4, TARL, TAARC1, and TAAR1 to these 16 ligands. […] Dots colored by receptor clades represent the ligand responses of receptors on the first two PC axes. Ligand eigenvectors are represented by lines and colored according to the ligand clusters. A ligand name is shown at the tip of the line if its eigenvector has a higher contribution (compared with other ligands) to either PC1 or PC2. […] (D) The presence of HTR4, TARL1, TARL2, and TAAR1 in several representative species in vertebrates is plotted. […]
(§3) Hana3A cells were plated onto 96-well plates (Greiner bio-one) with 50 µl growth medium (DMEM medium with 10% BCS and 5% penicillin–streptomycin solution with puromycin) and cultured at 37 °C with 5% CO2. […] The chemiluminescence of firefly luciferase and renilla luciferase were measured with a Biotek Microplate reader using the Dual-Glo Luciferase Assay System (Promega).

For the next experiment, the system named is TARL2. The experiment in a line: Response to 16 ligands at 10 µM, luciferase assay. Type of experiment: cell-based, coelacanth and shark. The conditions noted are these: fig. 5B. On the procedure:
as §2, §3

In another experiment the test system is cat TAAR9. The experiment in a line: Cell-based receptor activation reporter assay (SEAP / Dual-Glo luciferase). The following applies: table S3. On the procedure: as §1
(In general: Reporter assays use an easily measured gene product as a stand-in for the process of interest.)

Another experiment has as its target T1, hamster TAAR9 (Mesocricetus auratus, UniProt A0A1U7R5X1).
T1 construct: Rho tag (N-terminal 20 aa of bovine rhodopsin); expressed in transfected cells; host or cells: HEK293T (SEAP assay) or Hana3A (Dual-Glo luciferase assay)
T1 sequence (A0A1U7R5X1 1-348): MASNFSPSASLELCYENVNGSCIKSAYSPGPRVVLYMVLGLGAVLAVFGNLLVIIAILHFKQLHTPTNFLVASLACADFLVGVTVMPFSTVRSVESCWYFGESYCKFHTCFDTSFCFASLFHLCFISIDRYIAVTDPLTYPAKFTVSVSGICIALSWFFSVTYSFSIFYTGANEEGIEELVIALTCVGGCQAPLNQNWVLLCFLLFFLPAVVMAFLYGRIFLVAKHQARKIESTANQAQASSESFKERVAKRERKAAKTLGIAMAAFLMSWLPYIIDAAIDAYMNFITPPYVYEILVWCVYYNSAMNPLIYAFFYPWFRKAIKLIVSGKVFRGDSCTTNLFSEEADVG
The experiment is described as above. The following applies: table S3. On the procedure: as §1

A further experiment addresses T2, rabbit TAAR9 (Oryctolagus cuniculus, UniProt G1SUU9).
T2 construct: Rho tag (N-terminal 20 aa of bovine rhodopsin); expressed in transfected cells; host or cells: HEK293T (SEAP assay) or Hana3A (Dual-Glo luciferase assay)
T2 sequence (G1SUU9 1-348): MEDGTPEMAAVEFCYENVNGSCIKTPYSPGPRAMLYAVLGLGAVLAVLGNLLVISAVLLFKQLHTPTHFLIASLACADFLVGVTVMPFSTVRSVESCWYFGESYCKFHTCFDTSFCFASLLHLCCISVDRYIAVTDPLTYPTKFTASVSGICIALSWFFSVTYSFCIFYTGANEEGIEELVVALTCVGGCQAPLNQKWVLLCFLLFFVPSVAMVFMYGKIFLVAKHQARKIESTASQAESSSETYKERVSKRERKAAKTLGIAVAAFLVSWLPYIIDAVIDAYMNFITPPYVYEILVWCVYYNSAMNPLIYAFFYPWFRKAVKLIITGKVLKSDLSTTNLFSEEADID
The experiment is described as above. The following applies: table S3. Here is the method: as §1

Another experiment deals with T3, rat TAAR9 (Rattus norvegicus, UniProt Q923Y6).
T3 construct: bovine rhodopsin N-terminal 20 amino acids (Rho tag); expressed in transfected cells; host or cells: HEK293(T) (SEAP assay) or Hana3A (Dual-Glo assay)
T3 sequence (Q923Y6 1-338): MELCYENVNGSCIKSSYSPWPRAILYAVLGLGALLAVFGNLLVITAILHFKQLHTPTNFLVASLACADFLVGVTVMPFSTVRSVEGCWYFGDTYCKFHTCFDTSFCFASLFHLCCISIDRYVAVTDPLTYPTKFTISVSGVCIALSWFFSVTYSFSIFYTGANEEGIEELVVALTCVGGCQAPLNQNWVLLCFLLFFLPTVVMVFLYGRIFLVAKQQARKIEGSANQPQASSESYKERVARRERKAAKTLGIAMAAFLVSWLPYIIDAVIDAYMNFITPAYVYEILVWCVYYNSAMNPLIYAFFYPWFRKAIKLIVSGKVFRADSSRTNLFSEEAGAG
The description is as above. Here is the method:
as §1

For a further experiment, the system named is mouse TAAR9. Also on record: method as in Saraiva et al. 2016. The following applies: ref Saraiva et al. 2016; cited from earlier work.
Experiment [1] deals with TARLL2a (also called TAAR346a). Details: method as in Scott et al. 2019. The conditions noted are these: ref Scott et al. 2019; cited from earlier work.
The next experiment deals with zebrafish TAAR13c. Also on record: method as in Hussain et al. 2013. The conditions noted are these: ref Hussain et al. 2013; cited from earlier work.
For the next experiment, the target named is T4, mouse TAAR8a (Mus musculus, UniProt Q5QD07).
T4 construct: bovine rhodopsin N-terminal 20 amino acids (Rho tag); expressed in transfected cells; host or cells: HEK293(T) (SEAP assay) or Hana3A (Dual-Glo assay)
The experiment in a line: Cell-based receptor activation reporter assay (SEAP / Dual-Glo luciferase). On the procedure:
as §1

The next experiment has as its target cat TAAR6b (Felis catus, UniProt A0ABI7X994). Described as above. On the procedure:
as §1

In a further experiment the target is T5, mouse TAAR6 (Mus musculus, UniProt Q5QD13).
T5 construct: bovine rhodopsin N-terminal 20 amino acids (Rho tag); expressed in transfected cells; host or cells: HEK293(T) (SEAP assay) or Hana3A (Dual-Glo assay)
The experiment is described as above. On the procedure:
as §1

The target of the next experiment is T6, mouse TAAR7d (Mus musculus, UniProt Q5QD10).
T6 construct: bovine rhodopsin N-terminal 20 amino acids (Rho tag); expressed in transfected cells; host or cells: HEK293(T) (SEAP assay) or Hana3A (Dual-Glo assay)
The description is as above. On the procedure:
as §1

The next experiment has as its target rabbit TAAR8b (Oryctolagus cuniculus, UniProt G1SRV7). The description is as above. On the procedure: as §1
The next experiment addresses T7, rat TAAR6 (Rattus norvegicus, UniProt Q923Y5).
T7 construct: bovine rhodopsin N-terminal 20 amino acids (Rho tag); expressed in transfected cells; host or cells: HEK293(T) (SEAP assay) or Hana3A (Dual-Glo assay)
Described as above. On the procedure:
as §1

The next experiment deals with T8, rat TAAR7a (Rattus norvegicus, UniProt Q923Y2).
T8 construct: bovine rhodopsin N-terminal 20 amino acids (Rho tag); expressed in transfected cells; host or cells: HEK293(T) (SEAP assay) or Hana3A (Dual-Glo assay)
The description is as above. Here is the method: as §1

The next experiment deals with T9, rat TAAR8a (Rattus norvegicus, UniProt Q923X9).
T9 construct: bovine rhodopsin N-terminal 20 amino acids (Rho tag); expressed in transfected cells; host or cells: HEK293(T) (SEAP assay) or Hana3A (Dual-Glo assay)
Described as above. On the procedure: as §1

In a further experiment the target is wild boar TAAR7 (Sus scrofa, UniProt F1S3Q1). The experiment is described as above. On the procedure:
as §1

Values joined by “and” are separate entries in the source; they are usually repeats but may differ in a detail not shown here. Equal entries are not always repeated.

horse TAAR4, sequence (F7BPI5 entry or part of it): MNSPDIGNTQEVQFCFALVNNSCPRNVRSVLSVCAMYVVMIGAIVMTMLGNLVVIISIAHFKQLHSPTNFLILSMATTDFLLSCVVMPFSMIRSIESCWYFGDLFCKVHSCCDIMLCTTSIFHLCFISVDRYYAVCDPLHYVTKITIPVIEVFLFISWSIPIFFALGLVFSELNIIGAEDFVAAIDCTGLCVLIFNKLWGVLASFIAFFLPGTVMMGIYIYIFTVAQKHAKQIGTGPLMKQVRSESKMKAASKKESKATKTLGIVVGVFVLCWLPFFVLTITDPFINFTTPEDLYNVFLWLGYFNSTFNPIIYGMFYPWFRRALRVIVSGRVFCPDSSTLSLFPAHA
cat TAAR4, sequence (A0ABI7X9K0 entry or part of it): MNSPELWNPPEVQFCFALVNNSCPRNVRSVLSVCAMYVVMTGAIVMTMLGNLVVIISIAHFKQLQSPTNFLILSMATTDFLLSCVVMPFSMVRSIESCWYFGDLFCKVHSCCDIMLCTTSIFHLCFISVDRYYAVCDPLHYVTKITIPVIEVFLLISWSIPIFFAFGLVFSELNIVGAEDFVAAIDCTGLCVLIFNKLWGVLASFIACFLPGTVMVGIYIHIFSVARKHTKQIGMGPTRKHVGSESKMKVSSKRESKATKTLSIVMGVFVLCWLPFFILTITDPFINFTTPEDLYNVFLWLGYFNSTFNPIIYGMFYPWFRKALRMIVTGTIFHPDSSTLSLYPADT
hamster TAAR4, sequence (A0A1U7Q3I9 entry or part of it): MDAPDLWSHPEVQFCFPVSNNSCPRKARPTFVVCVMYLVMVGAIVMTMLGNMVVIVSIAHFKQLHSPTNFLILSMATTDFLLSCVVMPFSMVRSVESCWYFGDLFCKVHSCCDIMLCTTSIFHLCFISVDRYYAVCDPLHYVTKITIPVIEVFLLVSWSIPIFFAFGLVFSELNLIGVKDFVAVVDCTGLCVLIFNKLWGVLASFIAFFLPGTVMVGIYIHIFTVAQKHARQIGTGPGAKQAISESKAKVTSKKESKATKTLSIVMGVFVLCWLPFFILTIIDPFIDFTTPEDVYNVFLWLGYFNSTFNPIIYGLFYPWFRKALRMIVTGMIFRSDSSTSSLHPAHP
guinea pig TAAR4, sequence (H0W119 entry or part of it): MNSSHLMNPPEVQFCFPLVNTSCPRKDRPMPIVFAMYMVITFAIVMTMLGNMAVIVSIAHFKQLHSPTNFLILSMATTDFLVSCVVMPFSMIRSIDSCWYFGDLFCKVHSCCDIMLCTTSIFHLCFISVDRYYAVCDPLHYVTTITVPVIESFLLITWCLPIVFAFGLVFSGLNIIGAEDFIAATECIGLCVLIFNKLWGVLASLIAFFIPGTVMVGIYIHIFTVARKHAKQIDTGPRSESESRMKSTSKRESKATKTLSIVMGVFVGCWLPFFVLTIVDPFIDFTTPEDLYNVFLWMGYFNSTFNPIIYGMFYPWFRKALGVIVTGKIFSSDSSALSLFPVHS
wild boar TAAR7, sequence (F1S3Q1 entry or part of it): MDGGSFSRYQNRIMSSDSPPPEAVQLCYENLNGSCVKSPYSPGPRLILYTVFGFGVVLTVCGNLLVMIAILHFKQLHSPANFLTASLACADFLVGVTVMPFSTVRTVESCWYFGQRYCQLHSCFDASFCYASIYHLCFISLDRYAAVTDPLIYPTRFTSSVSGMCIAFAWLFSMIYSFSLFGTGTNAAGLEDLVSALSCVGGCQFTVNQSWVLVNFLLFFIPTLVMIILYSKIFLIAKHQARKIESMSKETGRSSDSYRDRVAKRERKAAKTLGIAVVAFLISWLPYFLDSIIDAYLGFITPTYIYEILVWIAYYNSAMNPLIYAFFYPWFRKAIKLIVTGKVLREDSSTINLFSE
cow TAAR4, sequence (F1MNY9 entry or part of it): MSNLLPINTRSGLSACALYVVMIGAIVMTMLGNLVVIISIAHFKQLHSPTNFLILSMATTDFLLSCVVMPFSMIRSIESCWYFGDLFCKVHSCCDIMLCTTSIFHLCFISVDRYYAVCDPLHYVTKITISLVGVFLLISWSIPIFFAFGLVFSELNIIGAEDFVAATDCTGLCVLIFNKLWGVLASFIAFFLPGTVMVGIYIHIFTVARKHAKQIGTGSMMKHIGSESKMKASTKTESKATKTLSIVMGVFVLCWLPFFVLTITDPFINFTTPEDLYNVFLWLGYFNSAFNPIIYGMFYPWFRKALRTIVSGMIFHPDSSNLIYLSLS
T9 sequence (Q923X9 whole entry): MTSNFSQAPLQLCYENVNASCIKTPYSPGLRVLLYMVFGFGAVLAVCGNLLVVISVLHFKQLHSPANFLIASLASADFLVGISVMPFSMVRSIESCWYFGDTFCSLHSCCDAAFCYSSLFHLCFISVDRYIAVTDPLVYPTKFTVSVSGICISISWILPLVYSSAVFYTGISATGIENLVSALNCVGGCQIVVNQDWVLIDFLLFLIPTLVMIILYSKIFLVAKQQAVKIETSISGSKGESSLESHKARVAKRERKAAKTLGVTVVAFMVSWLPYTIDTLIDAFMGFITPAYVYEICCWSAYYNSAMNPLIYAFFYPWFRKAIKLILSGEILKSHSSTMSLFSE
T5 sequence (Q5QD13 whole entry): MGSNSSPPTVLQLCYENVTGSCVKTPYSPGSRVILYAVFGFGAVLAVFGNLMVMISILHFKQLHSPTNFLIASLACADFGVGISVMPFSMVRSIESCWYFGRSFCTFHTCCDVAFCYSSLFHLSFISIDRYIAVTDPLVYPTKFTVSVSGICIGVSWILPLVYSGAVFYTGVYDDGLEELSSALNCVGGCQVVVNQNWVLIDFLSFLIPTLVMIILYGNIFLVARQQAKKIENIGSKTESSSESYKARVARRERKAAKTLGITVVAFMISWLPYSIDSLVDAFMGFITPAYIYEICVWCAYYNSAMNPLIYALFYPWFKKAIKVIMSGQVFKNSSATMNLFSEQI
T8 sequence (Q923Y2 whole entry): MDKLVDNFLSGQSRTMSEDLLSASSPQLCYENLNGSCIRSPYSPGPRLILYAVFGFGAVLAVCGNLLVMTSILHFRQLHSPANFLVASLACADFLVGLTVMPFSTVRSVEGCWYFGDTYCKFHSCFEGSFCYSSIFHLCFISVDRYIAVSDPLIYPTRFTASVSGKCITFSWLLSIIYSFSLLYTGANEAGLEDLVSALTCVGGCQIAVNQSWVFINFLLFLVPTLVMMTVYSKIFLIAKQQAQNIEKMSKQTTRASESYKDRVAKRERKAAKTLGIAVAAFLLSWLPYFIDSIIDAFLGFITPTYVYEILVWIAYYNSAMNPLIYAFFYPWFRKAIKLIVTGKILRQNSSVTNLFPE
T4 sequence (Q5QD07 whole entry): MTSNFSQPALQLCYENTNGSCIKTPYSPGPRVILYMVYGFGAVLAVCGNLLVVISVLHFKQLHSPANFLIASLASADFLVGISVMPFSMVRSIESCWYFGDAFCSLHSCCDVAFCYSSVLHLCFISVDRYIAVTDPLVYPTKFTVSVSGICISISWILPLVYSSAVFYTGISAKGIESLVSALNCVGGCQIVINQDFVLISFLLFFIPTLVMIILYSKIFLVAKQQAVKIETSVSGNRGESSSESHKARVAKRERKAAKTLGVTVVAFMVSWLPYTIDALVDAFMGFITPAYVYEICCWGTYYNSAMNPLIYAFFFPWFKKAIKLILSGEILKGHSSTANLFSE
T6 sequence (Q5QD10 whole entry): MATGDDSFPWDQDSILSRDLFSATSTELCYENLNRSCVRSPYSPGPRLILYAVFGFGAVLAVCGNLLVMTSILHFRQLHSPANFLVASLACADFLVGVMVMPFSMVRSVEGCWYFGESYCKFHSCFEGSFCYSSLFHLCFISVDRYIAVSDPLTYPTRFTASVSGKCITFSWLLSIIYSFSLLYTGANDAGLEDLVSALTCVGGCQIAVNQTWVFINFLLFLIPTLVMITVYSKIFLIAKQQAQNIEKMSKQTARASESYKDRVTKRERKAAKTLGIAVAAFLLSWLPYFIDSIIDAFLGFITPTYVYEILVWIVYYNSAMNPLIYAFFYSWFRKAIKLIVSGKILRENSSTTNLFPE
rabbit TAAR8b, sequence (G1SRV7 entry or part of it): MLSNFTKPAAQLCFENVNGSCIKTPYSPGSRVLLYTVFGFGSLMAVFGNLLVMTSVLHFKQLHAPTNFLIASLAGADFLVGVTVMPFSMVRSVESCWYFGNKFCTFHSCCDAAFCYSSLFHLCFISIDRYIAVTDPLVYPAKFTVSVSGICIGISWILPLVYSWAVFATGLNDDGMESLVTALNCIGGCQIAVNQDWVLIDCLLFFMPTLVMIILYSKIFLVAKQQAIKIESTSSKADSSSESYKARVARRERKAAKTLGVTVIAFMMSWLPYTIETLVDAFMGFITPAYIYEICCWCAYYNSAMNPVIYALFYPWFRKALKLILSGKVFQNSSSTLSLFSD
zebrafish TAAR12j, sequence (Q5QNN7 entry or part of it): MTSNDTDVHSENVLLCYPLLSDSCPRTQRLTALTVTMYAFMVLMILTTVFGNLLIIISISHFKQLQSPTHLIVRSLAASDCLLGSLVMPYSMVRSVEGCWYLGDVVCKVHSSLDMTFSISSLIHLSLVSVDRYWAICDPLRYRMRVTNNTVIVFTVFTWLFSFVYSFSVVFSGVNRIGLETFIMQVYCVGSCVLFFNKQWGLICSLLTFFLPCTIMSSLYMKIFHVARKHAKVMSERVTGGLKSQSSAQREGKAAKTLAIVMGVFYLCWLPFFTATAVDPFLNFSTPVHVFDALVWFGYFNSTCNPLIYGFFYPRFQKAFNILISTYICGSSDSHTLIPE
cat TAAR6b, sequence (A0ABI7X994 entry or part of it): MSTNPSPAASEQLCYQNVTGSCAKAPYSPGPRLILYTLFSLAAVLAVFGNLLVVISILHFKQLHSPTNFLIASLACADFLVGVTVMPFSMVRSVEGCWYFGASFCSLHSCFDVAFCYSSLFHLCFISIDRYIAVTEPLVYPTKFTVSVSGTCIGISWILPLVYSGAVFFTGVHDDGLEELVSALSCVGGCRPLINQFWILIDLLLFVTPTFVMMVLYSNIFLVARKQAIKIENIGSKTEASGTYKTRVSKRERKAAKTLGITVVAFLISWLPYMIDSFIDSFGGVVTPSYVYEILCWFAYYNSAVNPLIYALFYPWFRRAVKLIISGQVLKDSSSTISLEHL

As for `NCCc1ccccc1` [Phenylethylamine, phenylethylamine], the EC50 at cat TAAR4 is 30 µM and ~30 µM; at cow TAAR4, 98.4 µM; at guinea pig TAAR4 it was 150 µM and ~150 µM; at hamster TAAR4, 300 µM and ~300 µM; on horse TAAR4, 100 µM and ~100 µM; on zebrafish TAAR12j, 4.8 µM. Moreover, the TARL1 ligand profile result with TARL1 is listed as “ligands include”. Moreover, the TARL2 ligand profile result in the experiment on TARL2 was “cannot recognize”.
For `NCCCCCN` [Cadaverine, cadaverine], the “activation of TAAR9” value with cat TAAR9, at hamster TAAR9, on rabbit TAAR9 and on rat TAAR9 (table S3) was “activation” throughout. Also, the “ligand recognition by mouse TAAR9” value in the experiment on mouse TAAR9 is given as “can recognize”. Further, in [1], the “ligand recognition by TARLL2a” value is recorded as “recognize”. The “activation of TAAR13c” value in the experiment on zebrafish TAAR13c was “activates”.
Consider `C1CCNCC1` [Piperidine, piperidine], for which the concentration for a half-maximal effect (EC50) at mouse TAAR8a was roughly 300 µM.
Regarding `CN(C)C1CCCCC1` [N,N-dimethylcyclohexylamine], the EC50 at cat TAAR6b was 101 µM; on mouse TAAR6 it was roughly 50 µM; at mouse TAAR7d, 107 µM; on rabbit TAAR8b it was roughly 50 µM; at rat TAAR6, roughly 50 µM; on rat TAAR7a, 49.5 µM. Further, the 50% effective concentration (EC50) at rat TAAR8a was 27.6 µM; at rat TAAR9, roughly 30 µM; at wild boar TAAR7 it was 50 µM and ~50 µM.
